Experimental data published in PubChem BioAssay (NCI).
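Here, GI50 denotes the concentration required for 50% inhibition of growth. TGI: total growth inhibition.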

Assays:
Assay in all cases: NCI-60 cell line screen, 384-well format
786-0 renal = test system: 786-0 renal
A498 renal = test system: A498 renal
A549 NSCLC = test system: A549 NSCLC
ACHN renal = test system: ACHN renal
BT-549 breast = test system: BT-549 breast
CAKI-1 renal = test system: CAKI-1 renal
CCRF-CEM leukemia = test system: CCRF-CEM leukemia
COLO 205 colon = test system: COLO 205 colon
DU-145 prostate = test system: DU-145 prostate
EKVX NSCLC = test system: EKVX NSCLC
HCC-2998 colon = test system: HCC-2998 colon
HCT-15 colon = test system: HCT-15 colon
HL-60(TB) leukemia = test system: HL-60(TB) leukemia
HOP-62 NSCLC = test system: HOP-62 NSCLC
HOP-92 NSCLC = test system: HOP-92 NSCLC
HS 578T breast = test system: HS 578T breast
HT29 colon = test system: HT29 colon
IGROV1 ovarian = test system: IGROV1 ovarian
K-562 leukemia = test system: K-562 leukemia
KM12 colon = test system: KM12 colon
LOX IMVI melanoma = test system: LOX IMVI melanoma
M14 melanoma = test system: M14 melanoma
MALME-3M melanoma = test system: MALME-3M melanoma
MCF7 breast = test system: MCF7 breast
MDA-MB-231 breast = test system: MDA-MB-231 breast
MDA-MB-435 melanoma = test system: MDA-MB-435 melanoma
MDA-MB-468 breast = test system: MDA-MB-468 breast
MOLT-4 leukemia = test system: MOLT-4 leukemia
NCI-H226 lung = test system: NCI-H226 lung
NCI-H23 lung = test system: NCI-H23 lung
NCI-H322M lung = test system: NCI-H322M lung
NCI-H460 NSCLC = test system: NCI-H460 NSCLC
NCI-H522 lung = test system: NCI-H522 lung
NCI/ADR-RES ovarian = test system: NCI/ADR-RES ovarian
OVCAR-3 ovarian = test system: OVCAR-3 ovarian
OVCAR-4 ovarian = test system: OVCAR-4 ovarian
OVCAR-5 ovarian = test system: OVCAR-5 ovarian
OVCAR-8 ovarian = test system: OVCAR-8 ovarian
PC-3 prostate = test system: PC-3 prostate
RPMI-8226 leukemia = test system: RPMI-8226 leukemia
RXF 393 renal = test system: RXF 393 renal
SF-268 CNS = test system: SF-268 CNS
SF-295 CNS = test system: SF-295 CNS
SF-539 CNS = test system: SF-539 CNS
SK-MEL-28 melanoma = test system: SK-MEL-28 melanoma
SK-MEL-5 melanoma = test system: SK-MEL-5 melanoma
SK-OV-3 ovarian = test system: SK-OV-3 ovarian
SN12C renal = test system: SN12C renal
SNB-19 CNS = test system: SNB-19 CNS
SNB-75 CNS = test system: SNB-75 CNS
SR leukemia = test system: SR leukemia
SW-620 colon = test system: SW-620 colon
T-47D breast = test system: T-47D breast
TK-10 renal = test system: TK-10 renal
U251 glioblastoma = test system: U251 glioblastoma
UACC-257 melanoma = test system: UACC-257 melanoma
UACC-62 melanoma = test system: UACC-62 melanoma
UO-31 renal = test system: UO-31 renal

SMILES: O=C(NOC[C@H](O)CO)c1ccc(F)c(F)c1Nc1ccc(I)cc1F
- GI50 ([…]-0 renal): 10.4 µM
- TGI (786-0 renal): > 100 µM
- GI50 (A498 renal): 0.436 µM
- TGI (A498 renal): > 100 µM
- GI50 (A549 NSCLC): 0.0196 µM
- TGI (A549 NSCLC): 25.5 µM
- GI50 (ACHN renal): 0.471 µM
- TGI (ACHN renal): > 100 µM
- GI50 (BT-549 breast): 9.53 µM
- TGI (BT-549 breast): > 100 µM
- GI50 (CAKI-1 renal): 0.0974 µM
- TGI (CAKI-1 renal): > 100 µM
- GI50 (CCRF-CEM leukemia): 39.8 µM
- TGI (CCRF-CEM leukemia): > 100 µM
- GI50 (COLO 205 colon): < 0.01 µM
- TGI (COLO 205 colon): 0.0136 µM
- GI50 (DU-145 prostate): 3.46 µM
- TGI (DU-145 prostate): > 100 µM
- GI50 (EKVX NSCLC): 0.358 µM
- TGI (EKVX NSCLC): > 100 µM
- GI50 (HCC-2998 colon): < 0.01 µM
- TGI (HCC-2998 colon): 0.0395 µM
- GI50 (HCT-15 colon): 0.749 µM
- TGI (HCT-15 colon): > 100 µM
- GI50 (HL-60(TB) leukemia): < 0.01 µM
- TGI (HL-60(TB) leukemia): < 0.01 µM
- GI50 (HOP-62 NSCLC): 0.0116 µM
- TGI (HOP-62 NSCLC): > 100 µM
- GI50 (HOP-92 NSCLC): 0.0133 µM
- TGI (HOP-92 NSCLC): 0.492 µM
- GI50 (HS 578T breast): 2.73 µM
- TGI (HS 578T breast): > 100 µM
- GI50 (HT29 colon): < 0.01 µM
- TGI (HT29 colon): > 100 µM
- GI50 (IGROV1 ovarian): 0.0573 µM
- TGI (IGROV1 ovarian): 39.1 µM
- GI50 (K-562 leukemia): 0.205 µM
- TGI (K-562 leukemia): > 100 µM
- GI50 (KM12 colon): < 0.01 µM
- TGI (KM12 colon): > 100 µM
- GI50 (LOX IMVI melanoma): < 0.01 µM
- TGI (LOX IMVI melanoma): 0.722 µM
- GI50 (M14 melanoma): < 0.01 µM
- TGI (M14 melanoma): < 0.01 µM
- GI50 (MALME-3M melanoma): < 0.01 µM
- TGI (MALME-3M melanoma): < 0.01 µM
- GI50 (MCF7 breast): 33.7 µM
- TGI (MCF7 breast): > 100 µM
- GI50 (MDA-MB-231 breast): 0.0331 µM
- TGI (MDA-MB-231 breast): 0.934 µM
- GI50 (MDA-MB-435 melanoma): < 0.01 µM
- TGI (MDA-MB-435 melanoma): > 100 µM
- GI50 (MDA-MB-468 breast): 0.865 µM
- TGI (MDA-MB-468 breast): 10.9 µM
- GI50 (MOLT-4 leukemia): 28.1 µM
- TGI (MOLT-4 leukemia): 92.7 µM
- GI50 (NCI-H226 lung): < 0.01 µM
- TGI (NCI-H226 lung): 18.1 µM
- GI50 (NCI-H23 lung): < 0.01 µM
- TGI (NCI-H23 lung): 0.391 µM
- GI50 (NCI-H322M lung): 0.0373 µM
- TGI (NCI-H322M lung): > 100 µM
- GI50 (NCI-H460 NSCLC): 0.369 µM
- TGI (NCI-H460 NSCLC): > 100 µM
- GI50 (NCI-H522 lung): 15.3 µM
- TGI (NCI-H522 lung): > 100 µM
- GI50 (NCI/ADR-RES ovarian): 6.17 µM
- TGI (NCI/ADR-RES ovarian): 85.1 µM
- GI50 (OVCAR-3 ovarian): 21.8 µM
- TGI (OVCAR-3 ovarian): > 100 µM
- GI50 (OVCAR-4 ovarian): 0.0375 µM
- TGI (OVCAR-4 ovarian): 65.7 µM
- GI50 (OVCAR-5 ovarian): < 0.01 µM
- TGI (OVCAR-5 ovarian): 26.1 µM
- GI50 (OVCAR-8 ovarian): 11.8 µM
- TGI (OVCAR-8 ovarian): > 100 µM
- GI50 (PC-3 prostate): > 100 µM
- TGI (PC-3 prostate): > 100 µM
- GI50 (RPMI-8226 leukemia): < 0.01 µM
- TGI (RPMI-8226 leukemia): 18 µM
- GI50 (RXF 393 renal): 0.645 µM
- TGI (RXF 393 renal): > 100 µM
- GI50 (SF-268 CNS): 33.3 µM
- TGI (SF-268 CNS): > 100 µM
- GI50 (SF-295 CNS): 22.3 µM
- TGI (SF-295 CNS): > 100 µM
- GI50 (SF-539 CNS): 1.34 µM
- TGI (SF-539 CNS): 65.9 µM
- GI50 (SK-MEL-28 melanoma): < 0.01 µM
- TGI (SK-MEL-28 melanoma): < 0.01 µM
- GI50 (SK-MEL-5 melanoma): < 0.01 µM
- TGI (SK-MEL-5 melanoma): 45.8 µM
- GI50 (SK-OV-3 ovarian): 7.02 µM
- TGI (SK-OV-3 ovarian): > 100 µM
- GI50 (SN12C renal): < 0.01 µM
- TGI (SN12C renal): 22.9 µM
- GI50 (SNB-19 CNS): 0.164 µM
- TGI (SNB-19 CNS): > 100 µM
- GI50 (SNB-75 CNS): 2.68 µM
- TGI (SNB-75 CNS): 74.2 µM
- GI50 (SR leukemia): 26.4 µM
- TGI (SR leukemia): > 100 µM
- GI50 (SW-620 colon): < 0.01 µM
- TGI (SW-620 colon): > 100 µM
- GI50 (T-47D breast): 11.8 µM
- TGI (T-47D breast): > 100 µM
- GI50 (TK-10 renal): 0.689 µM
- TGI (TK-10 renal): > 100 µM
- GI50 (U251 glioblastoma): 0.577 µM
- TGI (U251 glioblastoma): > 100 µM
- GI50 (UACC-257 melanoma): < 0.01 µM
- TGI (UACC-257 melanoma): < 0.01 µM
- GI50 (UACC-62 melanoma): < 0.01 µM
- TGI (UACC-62 melanoma): < 0.01 µM
- GI50 (UO-31 renal): 0.506 µM
- TGI (UO-31 renal): 24.1 µM
